Data from US11932658B2 (BRISTOL-MYERS SQUIBB COMPANY, priority 2016, dated 2024).
pIC50: −log10 of the molar value.

The molecules below were run against T1, PAR4 (Homo sapiens, UniProt Q96RI0) (assay: PAR4 FLIPR assay (antagonism of agonist peptide-induced calcium mobilization)).
T1 construct: expressed in transfected cells; host or cells: HEK293 PAR4 Clone 1.2A (BMS Arctic ID 383940)
T1 sequence (Q96RI0 18-385): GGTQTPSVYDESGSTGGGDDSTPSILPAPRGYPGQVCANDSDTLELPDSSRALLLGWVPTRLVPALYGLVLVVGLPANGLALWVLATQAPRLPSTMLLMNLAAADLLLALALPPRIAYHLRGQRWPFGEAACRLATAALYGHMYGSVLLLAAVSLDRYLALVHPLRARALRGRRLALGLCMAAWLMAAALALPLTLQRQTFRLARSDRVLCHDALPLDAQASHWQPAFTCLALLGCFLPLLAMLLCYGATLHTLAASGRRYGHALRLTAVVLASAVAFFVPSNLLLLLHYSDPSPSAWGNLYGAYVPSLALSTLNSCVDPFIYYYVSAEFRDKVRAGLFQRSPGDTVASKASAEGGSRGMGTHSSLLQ
Format: cell-based
In short: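 Antagonism was taken as block of calcium mobilization evoked by the agonist peptide H-Ala-Phe(4-F)-Pro-Gly-Trp-Leu-Val-Lys-Asn-[…]-NH2, added after 30 min room-temperature compound preincubation in dye-loaded PAR4-transfected HEK293 cells (endogenous PAR1). Fluorescence was read on FDSS, with compound addition alone used as the agonist counter-screen; values come from 11-point concentration-response curves.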
`COc1cnc2c(-c3nc4cc(F)c5c(c4s3)C[C@](C)(COC(=O)Nc3cccnc3)O5)cc(C)cc2n1` [Example 183, (R)-(5-fluoro-2-(2-methoxy-7-methylquinoxalin-5-yl)-7-methyl-7,8-dihydrobenzofuro[5,4-d]thiazol-7-yl)methyl pyridin-3-ylcarbamate] showed a pIC50 of 8.64. Molecule `COc1cnc2c(-c3nc4cc(F)c5c(c4s3)C[C@](C)(COC(=O)Nc3cccc(C#N)c3)O5)cc(C)cc2n1` [Example 184, (R)-(5-fluoro-2-(2-methoxy-7-methylquinoxalin-5-yl)-7-methyl-7,8-dihydrobenzofuro[5,4-d]thiazol-7-yl)methyl (3-cyanophenyl)carbamate] has a pIC50 of 8.74. `COc1cnc2c(-c3nc4cc(F)c5c(c4s3)C[C@H](COC(=O)Nc3cncnc3)O5)cc(C)cc2n1` [Example 185] showed a pIC50 of 8.16. `COc1cnc2c(-c3nc4ccc5c(c4s3)CC(C)(C)O5)cc(C)cc2n1` [Example 186, 2-(2-methoxy-7-methylquinoxalin-5-yl)-7,7-dimethyl-7,8-dihydrobenzofuro[5,4-d]thiazole] gave a pIC50 of 8.06. `COc1cnc2c(-c3nc4ccc5c(c4s3)C(C)C(CO)O5)cc(C)cc2n1` (centres unmarked) [Example 189, (2-(2-methoxy-7-methylquinoxalin-5-yl)-8-methyl-7,8-dihydrobenzofuro[5,4-d]thiazol-7-yl)methanol] was tested, and the pIC50 was 7.96. Work on `COC(=O)NCC1Cc2c(ccc3nc(-c4cc(C)cc5nc(OC)cnc45)sc23)O1` (centres unmarked) [Example 191, Methyl ((2-(2-methoxy-7-methylquinoxalin-5-yl)-7,8-dihydrobenzofuro[5,4-d]thiazol-7-yl)methy 1)carbamate] yielded a pIC50 of 8.15. With `COc1cnc2c(-c3nc4ccc5c(c4s3)CC(CNC(=O)Oc3ccccc3)O5)cc(C)cc2n1` (centres unmarked) [Example 192, Phenyl ((2-(2-methoxy-7-methylquinoxalin-5-yl)-7,8-dihydrobenzofuro[5,4-d]thiazol-7-yl)methy 1)carbamate] the pIC50 was 8.08. Work on `COc1cnc2c(-c3nc4ccc5c(c4s3)CC(CNC(=O)OCc3ccccc3)O5)cc(C)cc2n1` (centres unmarked) [Example 193, Benzyl ((2-(2-methoxy-7-methylquinoxalin-5-yl)-7,8-dihydrobenzofuro[5,4-d]thiazol-7-yl)methyl)carbamate] yielded a pIC50 of 8.28. Work on `COc1cnc2c(-c3nc4ccc5c(c4s3)C[C@](C)(COC(=O)Nc3cnc(C)nc3)O5)cc(C)cc2n1` [Example 194, (R)-(2-(2-methoxy-7-methylquinoxalin-5-yl)-7-methyl-7,8-dihydrobenzofuro[5,4-d]thiazol-7-yl)methyl (2-methylpyrimidin-5-yl)carbamate] yielded a pIC50 of 8.60. With `COc1cnc2c(-c3nc4ccc5c(c4s3)C[C@](C)(COC(=O)Nc3cccnc3)O5)cc(C)cc2n1` [Example 195, (R)-(2-(2-methoxy-7-methylquinoxalin-5-yl)-7-methyl-7,8-dihydrobenzofuro[5,4-d]thiazol-7-yl)methyl pyridin-3-ylcarbamate] the pIC50 was 8.46. In the case of `COc1cnc2c(-c3nc4ccc5c(c4s3)C[C@](C)(COC(=O)Nc3cccc(C#N)c3)O5)cc(C)cc2n1` [Example 196, (R)-(2-(2-methoxy-7-methylquinoxalin-5-yl)-7-methyl-7,8-dihydrobenzofuro[5,4-d]thiazol-7-yl)methyl (3-cyanophenyl)carbamate], the pIC50 was 8.80. Molecule `CCOC(=O)NCC1Cc2c(ccc3nc(-c4cc(C)cc5nc(OC)cnc45)sc23)O1` (centres unmarked) [Example 197, Ethyl ((2-(2-methoxy-7-methylquinoxalin-5-yl)-7,8-dihydrobenzofuro[5,4-d]thiazol-7-yl)methyl)carbamate] has a pIC50 of 7.66. In the case of `COc1cnc2c(-c3nc4ccc5c(c4s3)CC(CNC(=O)OCC(C)C)O5)cc(C)cc2n1` (centres unmarked) [Example 198, Isobutyl ((2-(2-methoxy-7-methylquinoxalin-5-yl)-7,8-dihydrobenzofuro[5,4-d]thiazol-7-yl)methy 1)carbamate], the pIC50 was 8.51. Molecule `COc1cnc2c(-c3nc4cc(F)c5c(c4s3)CC(C)(C)O5)cc(C)cc2n1` [Example 200, 5-fluoro-2-(2-methoxy-7-methylquinoxalin-5-yl)-7,7-dimethyl-7,8-dihydrobenzofuro[5,4-d]thiazole] has a pIC50 of 8.10. `COc1cnc2c(-c3nc4cc(F)c5c(c4s3)C[C@@H](CNC(=O)OC(C)(C)C)O5)cc(C)cc2n1` [Example 202, (S)-tert-butyl ((5-fluoro-2-(2-methoxy-7-methylquinoxalin-5-yl)-7,8-dihydrobenzofuro[5,4-d]thiazol-7-yl)methyl)carbamate] was tested, and the pIC50 was 8.19. `COc1cnc2c(-c3nc4cc(F)c5c(c4s3)C[C@H](COC(=O)Nc3cccc(C(=O)N(C)C)c3)O5)cc(C)cc2n1` [Example 203, (R)-(5-fluoro-2-(2-methoxy-7-methylquinoxalin-5-yl)-7,8-dihydrobenzofuro[5,4-d]thiazo 1-7-yl)methyl (3-(dimethylcarbamoyl)phenyl)carbamate] was tested, and the pIC50 was 8.64. Work on `COc1cnc2c(-c3nc4cc(F)c5c(c4s3)C[C@H](COC(=O)Nc3ccc(C(=O)N(C)C)cc3)O5)cc(C)cc2n1` [Example 204, (R)-(5-fluoro-2-(2-methoxy-7-methylquinoxalin-5-yl)-7,8-dihydrobenzofuro[5,4-d]thiazo 1-7-yl)methyl (4-(dimethylcarbamoyl)phenyl)carbamate] yielded a pIC50 of 8.64. `COc1cnc2c(-c3nc4cc(F)c5c(c4s3)C[C@H](COC(=O)Nc3cncc(C(N)=O)c3)O5)cc(C)cc2n1` [Example 205, (R)-(5-fluoro-2-(2-methoxy-7-methylquinoxalin-5-yl)-7,8-dihydrobenzofuro[5,4-d]thiazo 1-7-yl)methyl (5-carbamoylpyridin-3-yl)carbamate] was tested, and the pIC50 was 8.89. In the case of `COc1cnc2c(-c3nc4cc(F)c5c(c4s3)C[C@H](COC(=O)Nc3ccc(-c4ncco4)cc3)O5)cc(C)cc2n1` [Example 207, (R)-(5-fluoro-2-(2-methoxy-7-methylquinoxalin-5-yl)-7,8-dihydrobenzofuro[5,4-d]thiazo 1-7-yl)methyl (4-(oxazol-2-yl)phenyl)carbamate], the pIC50 was 8.66. For `CNC(=O)c1ccc(NC(=O)OC[C@H]2Cc3c(c(F)cc4nc(-c5cc(C)cc6nc(OC)cnc56)sc34)O2)cc1` [Example 208, (R)-(5-fluoro-2-(2-methoxy-7-methylquinoxalin-5-yl)-7,8-dihydrobenzofuro[5,4-d]thiazo 1-7-yl)methyl (4-(methylcarbamoyl)phenyl)carbamate], the pIC50 was 8.96. `COc1cnc2c(-c3nc4cc(F)c5c(c4s3)C[C@@H](CNC(C)=O)O5)cc(C)cc2n1` [Example 209, (S)-N-((5-fluoro-2-(2-methoxy-7-methylquinoxalin-5-yl)-7,8-dihydrobenzofuro[5,4-d]thiazol-7-yl)methyl)acetamide] showed a pIC50 of 7.59. In the case of `COC(=O)NC[C@@H]1Cc2c(c(F)cc3nc(-c4cc(C)cc5nc(OC)cnc45)sc23)O1` [Example 210, (S)-methyl ((5-fluoro-2-(2-methoxy-7-methylquinoxalin-5-yl)-7,8-dihydrobenzofuro[5,4-d]thiazol-7-yl)methyl)carbamate], the pIC50 was 8.54. In the case of `COc1cnc2c(-c3nc4cc(F)c5c(c4s3)C[C@@H](CNC(=O)OCc3ccccc3)O5)cc(C)cc2n1` [Example 211, (S)-benzyl ((5-fluoro-2-(2-methoxy-7-methylquinoxalin-5-yl)-7,8-dihydrobenzofuro[5,4-d]thiazol-7-yl)methyl)carbamate], the pIC50 was 8.89. For `COc1cnc2c(-c3nc4cc(F)c5c(c4s3)C[C@@H](CNC(=O)Oc3ccccc3)O5)cc(C)cc2n1` [Example 212, (S)-phenyl ((5-fluoro-2-(2-methoxy-7-methylquinoxalin-5-yl)-7,8-dihydrobenzofuro[5,4-d]thiazol-7-yl)methyl)carbamate], the pIC50 was 8.68. Molecule `COc1cnc2c(-c3nc4cc(F)c5c(c4s3)C[C@@H](CNC(=O)Oc3ccc(C)cc3)O5)cc(C)cc2n1` [Example 213, (S)-p-tolyl ((5-fluoro-2-(2-methoxy-7-methylquinoxalin-5-yl)-7,8-dihydrobenzofuro[5,4-d]thiazol-7-yl)methyl)carbamate] has a pIC50 of 8.44. For `COc1cnc2c(-c3nc4cc(F)c5c(c4s3)C[C@@H](CNC(=O)Oc3ccc(Cl)cc3)O5)cc(C)cc2n1` [Example 214, (S)-4-chlorophenyl ((5-fluoro-2-(2-methoxy-7-methylquinoxalin-5-yl)-7,8-dihydrobenzofuro[5,4-d]thiazol-7-yl)methyl)carbamate], the pIC50 was 7.59. `COc1cnc2c(-c3nc4cc(F)c5c(c4s3)C[C@@H](CNC(=O)C(F)(F)F)O5)cc(C)cc2n1` [Example 215, (S)-2,2,2-trifluoro-N-((5-fluoro-2-(2-methoxy-7-methylquinoxalin-5-yl)-7,8-dihydrobenzofuro[5,4-d]thiazol-7-yl)methyl)acetamide] was tested, and the pIC50 was 8.64. `COc1ccc(OC(=O)NC[C@@H]2Cc3c(c(F)cc4nc(-c5cc(C)cc6nc(OC)cnc56)sc34)O2)cc1` [Example 216, (S)-4-methoxyphenyl ((5-fluoro-2-(2-methoxy-7-methylquinoxalin-5-yl)-7,8-dihydrobenzofuro[5,4-d]thiazol-7-yl)methyl)carbamate] showed a pIC50 of 8.68. With `COc1cnc2c(-c3nc4cc(F)c5c(c4s3)C[C@H](CNC(=O)Cc3ccccc3)O5)cc(C)cc2n1` [Example 217, (R)-N-((5-fluoro-2-(2-methoxy-7-methylquinoxalin-5-yl)-7,8-dihydrobenzofuro[5,4-d]thiazol-7-yl)methyl)-2-phenylacetamide] the pIC50 was 6.92.
